Here are results for one compound from patent US20060025458A1, “Alkylammonium compounds as antifungal and antitrypanosomal agents” (University of Connecticut, priority 2004, published 2006).

For assay [1], the system named is S. cerevisiae wild type and knockouts of PtdCho biosynthesis genes. Briefly: Plate growth limiting dilution assay of yeast phospholipid mutants with G25. Format: cell-based, Saccharomyces cerevisiae. The note with it: 5 μM G25, plate assay. As for the experimental part:
FIG. 9. Sensitivity to G25 of wild type and mutants affected in different steps of PtdCho biosynthesis. Plate growth limiting dilution assays were performed as described in Materials and Methods in the absence or the presence of 5 μM of G25. The strains and genes deleted in the strains used are described in “Material and Methods”.
Strains and Growth Conditions: Wild-type (BY4741: Mata his3Δ1 leu2Δ0 met15Δ0 ura3Δ0) and mutant (hnm1Δ, psd1Δ, cki1Δ, pem1Δ, ept1Δ, cpt1Δ, eki1Δ, psd2Δ, pct1Δ, ect1Δ, pem2Δ) S. cerevisiae strains used in this study were purchased from Research Genetics (Invitrogen, USA). These strains were grown on YPD (1% yeast extract, 2% dextrose and 2% peptone) or synthetic complete medium (SD, 1.7% yeast nitrogen base, 5% ammonium sulfate and 2% dextrose). The Nigerian strain of P. falciparum was propagated in human red blood cells at 4% hematocrit by the method of Trager and Jensen (1976). Plate growth assays were performed by growing wild-type and mutant yeast strains in YPD to mid-log phase. Cultures were serially diluted 1:10 starting with a density of 3×10^7 cells/ml. The growth of cells was monitored by spotting 3 μl of each dilution onto solid medium in the absence or presence of 5 μM of G25.
Sensitivity of mutants affected in phospholipid metabolism to choline analogs. […] However, the steps in the phospholipid biosynthesis pathways that are specifically targeted by these compounds are not yet known. To assess whether the mode of action of G25 is linked to disruption of phospholipid metabolism, yeast was used as a surrogate system to compare the sensitivity to G25 of the wild-type strain and eleven individual knockouts in the CDP-choline, CDP-ethanolamine and CDP-DAG pathways. […] No resistance was conferred by loss of the PtdEtn methyltransferases, Pem1 and Pem2, or the enzymes of the CDP-ethanolamine pathway. Furthermore, unlike psd1[…] strain, loss of the Golgi/vacuole PtdSer decarboxylase, Psd2, which synthesizes 5% of the PtdEtn pool only, had no effect on G25 sensitivity.

For assay [2], the system named is C. albicans strain BWP17. The assay is described as follows: Growth inhibition of C. albicans in vitro. Format: cell-based, Candida albicans. The settings on record: read-out: IC50, C. albicans proliferation. As for the experimental part:
G15, E24 and C35 inhibited at higher concentrations (>10 μM).

The test system of assay [3] is P. falciparum and P. cynomolgi. The note with it: very low doses; cited from earlier work.
For assay [4], the system named is de novo biosynthesis of PtdEtn from ethanolamine. Briefly: Incorporation of radiolabeled ethanolamine into PtdEtn in P. falciparum-infected erythrocytes. The note with it: concentrations up to 100 μM. The class given is cell-based, Plasmodium falciparum. As for the experimental part:
Labeling Studies and Phospholipid Analysis in P. falciparum: Nigerian strains of P. falciparum were asexually cultured in the presence of basic medium (RPMI 1640 supplemented with 25 mM Hepes, pH 7.4) and 10% AB^+ human serum (Trager and Jensen, 1976). Parasite synchronization was obtained with three successive 5% sorbitol treatments (Lambros and Vanderberg, 1979). Synchronized P. falciparum-infected erythrocytes (7-10% parasitemia, trophozoites) were pre-incubated for 1 hour at 37° C. at 4% hematocrit in 2 ml (final volume) basic medium in the absence or the presence of different concentrations of the compound G25. The appropriate radioactive precursor of lipid metabolism was added followed by further 3 h of incubation. Radioactive precursors were used as follows: 30 μM [methyl-^3H]-choline (334 mCi/mmol), 2 μM [^3H]-ethanolamine (2 Ci/mmol) and 10 μM [3-^14C]-serine (57 mCi/mmol). […] The silica gel of the lipid spots were scraped directly into scintillation vials containing 3 ml of liquid-scintillation fluid and counted in a Beckman LS 5000 spectrophotometer. The amount of labeled precursors incorporated into cellular lipids (nmol×10^7 cell^−1×h^−1) was computed on the basis of radioactivity incorporated into lipids and the specific activity of the precursors in the incubation medium. […]

Assay [5] relates to P. falciparum. The note with it: cited from earlier work.
Assay [6] deals with endogenous PtdSer decarboxylase activity. Briefly: Serine labeling: PtdEtn formation from PtdSer in P. falciparum-infected erythrocytes. Format: cell-based, Plasmodium falciparum. As to the method:
FIG. 10B. Effect of G25 on PtdEtn and PtdSer synthesis from serine. 5-6×10^7 synchronized P. falciparum-infected erythrocytes (7% trophozoite stage) were pre-incubated at 4% haematocrit for 1 h in RPMI-based medium containing the indicated concentration of G25 before adding 10 μM [^14C]-serine (57 mCi/mmol). After incubation at 37° C. for 3 h, the cellular lipids were extracted and fractionated on TLC plates for quantification of radioactivity in PtdSer (black diamonds), and PtdEtn (white circles).
Labeling Studies and Phospholipid Analysis in P. falciparum: Nigerian strains of P. falciparum were asexually cultured in the presence of basic medium (RPMI 1640 supplemented with 25 mM Hepes, pH 7.4) and 10% AB^+ human serum (Trager and Jensen, 1976). Parasite synchronization was obtained with three successive 5% sorbitol treatments (Lambros and Vanderberg, 1979). Synchronized P. falciparum-infected erythrocytes (7-10% parasitemia, trophozoites) were pre-incubated for 1 hour at 37° C. at 4% hematocrit in 2 ml (final volume) basic medium in the absence or the presence of different concentrations of the compound G25. The appropriate radioactive precursor of lipid metabolism was added followed by further 3 h of incubation. […] The silica gel of the lipid spots were scraped directly into scintillation vials containing 3 ml of liquid-scintillation fluid and counted in a Beckman LS 5000 spectrophotometer. The amount of labeled precursors incorporated into cellular lipids (nmol×10^7 cell^−1×h^−1) was computed on the basis of radioactivity incorporated into lipids and the specific activity of the precursors in the incubation medium.
The possible inhibition of PtdSer decarboxylase activity in P. falciparum by G25 was investigated. P. falciparum-infected erythrocytes were labeled with radiolabeled serine, which is readily incorporated into PtdSer, in the presence or absence of increasing concentrations of G25, and the effect of this compound on the parasite endogenous PtdSer decarboxylase activity was measured by following the formation of PtdEtn from PtdSer (FIG. 10B). […]

As to `C[N+]1(CCCCCCCCCCCCCCCC[N+]2(C)CCCC2)CCCC1.[Br-].[Br-]` [G25, 1,16-hexadecamethylenebis[N-methylpyrrolidinium]dibromide], in assay [1], the “effect of loss of Psd2 on sensitivity” value was “no effect”; the “resistance conferred by loss of Cki1, Cpt1, Pct1 and Hnm1 (CDP-choline pathway)” value is listed as “substantial resistance”; the “resistance conferred by loss of Pem1, Pem2 or CDP-ethanolamine pathway enzymes” value is reported as “No resistance”; the “resistance of psd1 deletion strain” value is listed as “highly resistant”. Also, the IC50 in assay [2] is around 5 µM. Further, the “malaria infection in monkeys” value in assay [3] was “cleared malaria infection”. Besides, in assay [4], the “effect on incorporation of radiolabeled ethanolamine into PtdEtn” value was “no effect”. Further, the IC50 in assay [5] (in vitro, literature, read-out: IC50, P. falciparum) was 0.0012 µM. Also, the IC90/IC50 ratios entry in assay [5] (multidrug resistant laboratory and clinical isolates) is recorded as “less than 3”. For the same compound, in assay [6] (100 μM G25), the “decrease in the pool of PtdEtn formed from PtdSer” value is recorded as 77% and the “effect on first step of the CDP-DAG pathway catalyzed by PtdSer synthase” value is recorded as “no effect”. Besides, in assay [6] (increasing concentrations of G25), the “total incorporation of serine” value is on record as “not affected”.
